{"source": "paper PMC7156724", "about": "“Potent BRD4 inhibitor suppresses cancer cell-macrophage interaction” (Nature Communications, 2020)", "key": {"MDA-MB231 cells": {"tested_on": "MDA-MB231 cells", "test": "MTT cell growth assay, MDA-MB231", "assay_type": "cell-based, human", "settings": "5 days", "procedure": "Fig. 2 NHWD-870 inhibited BRD4 phosphorylation and c-MYC expression, and suppressed cell growth. a Representative western blot analysis of p-BRD4 (s484/488), BRD4, c-MYC, and GAPDH after treatment of MDA-MB231, SUM159, A2780 ES-2, and H526 cells with JQ-1 or NHWD-870 at the indicated concentrations for 24 h. GAPDH served as the loading control. Selected from three independent experiments. b MTT assays of H526, A2780, ES-2, and MDA-MB231 cells treated with JQ-1 or NHWD-870 at the indicated concentrations for 5 days. Data are presented as mean ± SEM from three independent experiments. c, d Clonogenic assays of H526, A2780, ES-2 and MDA-MB231 cells treated with 250 nM JQ-1 or NHWD-870 for 5 days. Shown are representative images (c) and quantification of colonies (d). […] Shown are representative images (e) and quantification of relative colony sizes (f). Scale bar, 50 μm. Data are presented as mean ± SEM from five independent experiments. p values were calculated using two-tailed, unpaired t tests in this figure. **p < 0.01; ***p < 0.001. Source data are provided as a Source Data file.\n37℃, 5% CO2. […]"}, "[1]": {"test": "Equilibrium dialysis assay, SD rat plasma", "procedure": "The concentration was calculated using the peak area ratio of analyte and internal […]\nThe results were calculated by the following equations:\n% Unbound = 100 *FC / TC, % Bound = 100 * (1-FC / TC)\n% Recovery = 100 * (FC + TC) / T0\nTC = Total compound concentration as determined by the calculated concentration on the retentate side of the membrane\nFC = Free compound concentration as determined by the calculated concentration on the dialysate side of the membrane […]\nEquation of first order kinetics: […]\n8. Equilibrium dialysis assay. Binding with plasma protein and recovery rate of NHWD-870 were performed with human, CD-1 mouse and SD rat plasma as […]\ndescribed 2. […] The concentration was […]\ncalculated using the peak area ratio of analyte and internal standard. The results were calculated by the following equations: % Unbound = 100 *FC / TC, % Bound = 100 * (1-FC / TC); % Recovery = 100 * (FC + TC) / T0; TC = Total compound concentration as determined by the calculated concentration on the retentate side of the membrane; FC = Free compound concentration as determined by the (1 picture or pasted object on this page, not shown here) […]\ncalculated concentration on the dialysate side of the membrane; T0 = To t a l compound concentration as determined before dialysis. […]\n10. hERG channel assay. […]\nHEK293 cell line stably"}, "[2]": {"tested_on": "TAMs (CD11b+F4/80+ cells) in A375 melanoma model", "test": "FACS analysis of TAMs in A375 tumors", "assay_type": "in vivo, mouse", "settings": "day 21, FACS", "procedure": "Flow cytometry analyses were performed using antibodies listed in Supplementary Table 8. For cell surface markers, mouse TAM suspensions were stained with mouse APC-CD45, FITC-CD11b, PE-F4/80 or APC-F4/80, CD68, and PE-CD206 antibodies for 15 min on ice. For Ki67 staining, cells were fixed in 4% paraformaldehyde and stained with FITC-Ki67. Isotype matching antibody served as the negative control. Flow cytometry was performed on a FACSCalibur (BD Biosciences). Data were analyzed with BD CellQuest Pro software version 5.1.\n(a,b) Tumors from A375 tumor bearing mice in Figure 3e were harvested at day 21 and stained with anti-CD45, CD11b, F4/80, CD68 and Ki67 followed by FACS analysis. Shown are representative FACS plots (a ) and quantification of the percentage of CD11b+F4/80+ and CD11b+F4/80+CD68+Ki67+ cells (b). Data are presented as mean ± SEM from 5 different mice. p values were calculated using two-tailed, unpaired t tests.\n**, p<0.01; ***, p<0.001. (c,d) Tumors from mice described in Figure 4e were harvested at day 45 and stained […]"}, "TAMs": {"tested_on": "TAMs", "test": "Transwell 2D co-culture of pretreated A2780 cells and TAMs, colonies", "assay_type": "cell-based, mouse", "procedure": "CD45^+CD11b^+F4/80^+ TAMs were isolated from peritoneal metastasis of A2780 tumor-bearing mice and cultured in RPMI-1640 supplemented with 10% FBS, 1% penicillin/streptomycin, and 0–50 ng/ml CSF1 (R&D Systems) as indicated according to standard protocols. In the cancer cell-macrophage co-culture experiments, CSF1 was not added. In the transwell (Corning, pore size, 0.4 μm) co-culture experiments, tumor cells were placed into the upper chamber, and TAMs were seeded into the lower chamber. […]\nwith anti-CD45, CD11b and CD206 followed by FACS analysis. Shown are representative FACS plots (c) and quantification of the percentage of CD11b+CD206+ cells (d). Data are presented as mean ± SEM from 5 different mice. p values were calculated using two-tailed, unpaired t tests. **, p<0.01; ***, p<0.001. […] Quantification of spheroid volumes (f). Data are presented as mean ± SEM from 15 independent experiments. p values were calculated using two-tailed, unpaired t tests. **, p<0.01. […]\nCD45+F4/80 +CD11b+CD206+ TAMs were isolated from tumors of ovarian cancer-bearing donor m i c e. Sh o wn are schematics of the experiment (g), representative images (h) and quantification of colonies (i). Data are presented as mean ± SEM from 3 independent experiments. p values were calculated using two-tailed, unpaired t tests. **, p<0.01; ***, p<0.001. […]"}}, "note": "“And” between values parts separate entries of the source, which are not always exact repeats. Equal values may be shown once.", "data": [{"smiles": "Cc1nnn(C)c1-c1cnc2c3c4cnn(C)c4ccc3n([C@H](c3ccccc3)C3CCOCC3)c2c1", "note": "[NHWD-870]", "values": [{"measurement": "MTT assay, relative cell number", "setting": "MDA-MB231 cells; MDA-MB231, 0.1 nM", "result": "0.965 and 0.95 and 0.937"}, {"measurement": "MTT assay, relative cell number", "setting": "MDA-MB231 cells; MDA-MB231, 1 nM", "result": "0.701 and 0.703 and 0.725"}, {"measurement": "MTT assay, relative cell number", "setting": "MDA-MB231 cells; MDA-MB231, 10 nM", "result": "0.368 and 0.306 and 0.338"}, {"measurement": "MTT assay, relative cell number", "setting": "MDA-MB231 cells; MDA-MB231, 100 nM", "result": "0.083 and 0.065 and 0.074"}, {"measurement": "MTT assay, relative cell number", "setting": "MDA-MB231 cells; MDA-MB231, 500 nM", "result": 0}, {"measurement": "MTT assay, relative cell number", "setting": "MDA-MB231 cells; MDA-MB231, 1000 nM", "result": 0}, {"measurement": "MTT assay, relative cell number", "setting": "MDA-MB231 cells; MDA-MB231, 5000 nM", "result": 0}, {"measurement": "MTT assay, relative cell number", "setting": "MDA-MB231 cells; MDA-MB231, 10000 nM", "result": 0}, {"measurement": "% Bound", "setting": "[1]; SD rat plasma, equilibrium dialysis", "result": 95.4, "unit": "%"}, {"measurement": "fraction unbound", "setting": "[1]; SD, rat, plasma", "result": 0.046}, {"measurement": "recovery", "setting": "[1]; SD, rat, plasma", "result": 92.5, "unit": "%"}, {"measurement": "number of TAMs (CD11b+F4/80+ cells) or proliferating TAMs", "setting": "[2]", "result": "decreased the number of TAMs"}, {"measurement": "fold decrease of the growth of TAMs", "setting": "TAMs; 50 nM, 2D system", "result": "about 6 fold"}, {"measurement": "growth of TAMs in 2D co-culture system", "setting": "TAMs; A2780 pre-treated with 25 or 50 nM for 48h", "result": "potently decreased the growth of TAMs in a dose-dependent manner"}]}]}
